Reference: patent US11541028B2, “Peptide pharmaceuticals for treatment of NASH and other disorders” (Mederis Diabetes LLC, priority 2018, dated 2023)
Each block holds one compound with its values, some of them ahead of it. Square brackets hold non-standard residues; d marks the D form. Peptide text beside a SMILES is read from it. * marks the point of attachment. GlcA(β-D,1-O-dodecyl) = CCCCCCCCCCCCO[C@@H]1O[C@H](C(=O)*)[C@@H](O)[C@H](O)[C@H]1O; Ac4c = NC1(C(=O)O)CCC1; Aib = CC(C)(N)C(=O)O

Columns and labels:
[1] = molecular target: T1, GLP-1 R (Mus musculus, UniProt O35659); test: Cerep cellular assay, stimulation of cAMP levels, GLP-1 (murine cell line); type: cell-based; parameters: key: §means superagonist; n.c. means EC50 not calculable; settings: n.c. = EC50 not calculable
T1 construct: GLP-1 (murine cell line) cellular assays
T1 sequence (O35659 22-463): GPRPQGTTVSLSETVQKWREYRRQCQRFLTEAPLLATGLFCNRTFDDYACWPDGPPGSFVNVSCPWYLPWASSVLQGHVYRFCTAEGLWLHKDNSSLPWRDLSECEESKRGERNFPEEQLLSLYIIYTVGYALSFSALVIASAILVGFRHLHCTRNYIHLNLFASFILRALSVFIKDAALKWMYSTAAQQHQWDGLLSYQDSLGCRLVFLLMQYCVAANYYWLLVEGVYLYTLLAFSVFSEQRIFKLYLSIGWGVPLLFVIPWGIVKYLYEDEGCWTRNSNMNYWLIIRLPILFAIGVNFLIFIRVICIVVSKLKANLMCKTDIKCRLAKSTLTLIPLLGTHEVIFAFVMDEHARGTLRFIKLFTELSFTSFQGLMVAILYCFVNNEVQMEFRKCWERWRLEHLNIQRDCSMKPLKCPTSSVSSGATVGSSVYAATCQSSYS
Experimental: Compounds were weighed precisely in an amount of about 1 mg and assayed in standard cellular assays (Cerep SA). The readout was the amount of cAMP generated in the cells treated with the test compounds, in either agonist or antagonist mode. […] The assays are described in Chicchi et al., J. Biol. Chem., 272:7765-7769 (1997) and Runge et al., Br. J. Pharmacol., 138:787-794 (2003).

[2] = tested on: DIO C57BL/6J mice; test: Activity in diet-induced obese (DIO) mice; type: in vivo
Experimental: Fifty diet-induced obese (DIO) C57BL/6J male mice (JAX Labs) were received at 6 wks of age. The mice were ear notched for identification and housed individually in positively ventilated polycarbonate cages with HEPA-filtered air at a density of […]. The animal room was lit entirely with artificial fluorescent lighting, with a controlled 12 hr light/dark cycle. The normal temperature and relative humidity ranges in the animal rooms were 22±4° C. and 50±15%, respectively. Filtered tap water, acidified to a pH of 2.8-3.1, and a high-fat diet (Research Diets D12492, 60 kcal %) were provided ad libitum.
Following a 2 week acclimation, the 50 mice were randomized into groups (n=10): Group 1: treated with vehicle; Group 2: low-dose EU-A994; Group 3: high-dose […]; Group 4: low-dose EU-A1024; and Group 5: high-dose EU-A1024. Mice were dosed subcutaneously on days 1 (at 0 and 7 hr), 3, 6, 9, 12, 15, 18, 21 and 24. Body weight and cage-side observations were recorded daily. Food and water intake was recorded weekly. Mice underwent NMR measurements for determination of whole-body fat and lean composition on days 1 (pre-dose) and 26. On day 26, mice were fasted overnight for an oral glucose tolerance test. Next day, the first blood sample was collected via tail nick (t=0). Mice were then administered a bolus of 1.0 g/kg glucose. Blood samples were obtained via tail nick at 0, 15, 30, 60, 90 and 120 min after glucose dosing, and plasma glucose was immediately determined using a glucometer.
Mice were sacrificed on day 28. Terminal blood was processed to serum/plasma, and aliquots were sent for analysis of glucose, insulin and lipid profile. Body composition was determined by NMR.

[3] = molecular target: T2, human GLP-1 receptor (Homo sapiens, UniProt P43220); test: DiscoveRx LeadHunter cellular assay, cAMP stimulation, GLP-1 receptor in CHO cells; type: cell-based; settings: human GLP-1 receptor in CHO cells (DiscoveRx); read-out: EC50 cAMP GLP-1 R
T2 construct: host or cells: CHO cells
T2 sequence (P43220 24-463): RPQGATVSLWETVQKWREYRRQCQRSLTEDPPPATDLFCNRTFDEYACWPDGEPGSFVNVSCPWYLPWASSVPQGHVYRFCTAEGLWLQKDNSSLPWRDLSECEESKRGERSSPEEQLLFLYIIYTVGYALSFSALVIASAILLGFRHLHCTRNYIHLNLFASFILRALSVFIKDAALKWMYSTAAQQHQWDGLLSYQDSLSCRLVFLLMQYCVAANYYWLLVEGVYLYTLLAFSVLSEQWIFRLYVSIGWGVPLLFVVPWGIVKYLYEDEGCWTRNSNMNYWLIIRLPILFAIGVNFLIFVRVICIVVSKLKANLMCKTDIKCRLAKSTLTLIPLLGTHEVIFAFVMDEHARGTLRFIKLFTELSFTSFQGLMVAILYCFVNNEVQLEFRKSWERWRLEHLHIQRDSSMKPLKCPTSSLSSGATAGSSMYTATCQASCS

[4] = molecular target: T3, human glucagon receptor (Homo sapiens, UniProt P47871); test: DiscoveRx LeadHunter cellular assay, cAMP stimulation, glucagon receptor in CHO cells; type: cell-based
T3 construct: host or cells: CHO cells
T3 sequence (P47871 26-477): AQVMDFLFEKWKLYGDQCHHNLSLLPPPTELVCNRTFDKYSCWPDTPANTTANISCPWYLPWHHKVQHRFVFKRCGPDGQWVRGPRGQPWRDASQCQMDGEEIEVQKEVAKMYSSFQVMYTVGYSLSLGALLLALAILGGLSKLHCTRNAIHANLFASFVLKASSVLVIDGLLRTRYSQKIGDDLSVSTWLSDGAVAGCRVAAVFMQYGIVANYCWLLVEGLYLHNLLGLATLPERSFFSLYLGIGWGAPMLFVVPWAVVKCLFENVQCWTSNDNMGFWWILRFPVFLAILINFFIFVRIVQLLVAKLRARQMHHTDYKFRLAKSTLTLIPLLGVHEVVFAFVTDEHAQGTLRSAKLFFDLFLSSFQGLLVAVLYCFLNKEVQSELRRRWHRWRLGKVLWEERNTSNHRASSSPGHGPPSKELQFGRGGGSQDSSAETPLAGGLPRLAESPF

[5] = days 1 (pre-dose) and 26 (FIG. 11)
[6] = sc on days 1 (0 and 7 hr), 3, 6, 9, 12, 15, 18, 21 and 24

EC50 GLP-1 R (nM) [1]: n.c.
SMILES: CCCCCCCCCCCCO[C@@H]1O[C@H](C(=O)NCCCC[C@H](NC(=O)[C@H](CC(=O)O)NC(=O)[C@H](CC(C)C)NC(=O)[C@H](Cc2ccc(O)cc2)NC(=O)[C@H](CCCCN)NC(=O)[C@H](CO)NC(=O)[C@H](Cc2ccc(O)cc2)NC(=O)[C@H](CC(=O)O)NC(=O)[C@H](CO)NC(=O)[C@@H](NC(=O)[C@H](Cc2ccccc2)NC(=O)[C@@H](NC(=O)CNC(=O)[C@H](CCC(N)=O)NC(=O)C(C)(C)NC(=O)[C@@H](N)Cc2c[nH]cn2)[C@@H](C)O)[C@@H](C)O)C(=O)NC2(C(N)=O)CCC2)[C@@H](O)[C@H](O)[C@H]1O [EU-A522] (H-H[Aib]QGTFTSDYSKYLDK(GlcA(β-D,1-O-dodecyl))[Ac4c]-NH2; N-terminus assumed)

EC50 GLP-1 R (nM) [1]: n.c.
SMILES: CCCCCCCCCCCCO[C@@H]1O[C@H](C(=O)NCCCC[C@H](NC(=O)[C@H](CO)NC(=O)[C@H](CC(=O)O)NC(=O)[C@H](CC(C)C)NC(=O)[C@H](Cc2ccc(O)cc2)NC(=O)[C@H](CCCCN)NC(=O)[C@H](CO)NC(=O)[C@H](Cc2ccc(O)cc2)NC(=O)[C@H](CC(=O)O)NC(=O)[C@H](CO)NC(=O)[C@@H](NC(=O)[C@H](Cc2ccccc2)NC(=O)[C@@H](NC(=O)CNC(=O)[C@H](CCC(N)=O)NC(=O)C(C)(C)NC(=O)[C@@H](N)Cc2c[nH]cn2)[C@@H](C)O)[C@@H](C)O)C(=O)NC(C)(C)C(N)=O)[C@@H](O)[C@H](O)[C@H]1O [EU-A527]

EC50 GLP-1 R (nM) [1]: n.c.
SMILES: CCCCCCCCCCCCO[C@@H]1O[C@H](C(=O)NCCCC[C@H](NC(=O)[C@H](CO)NC(=O)[C@H](CC(=O)O)NC(=O)[C@H](CC(C)C)NC(=O)[C@H](Cc2ccc(O)cc2)NC(=O)[C@H](CCCCN)NC(=O)[C@H](CO)NC(=O)[C@H](Cc2ccc(O)cc2)NC(=O)[C@H](CC(=O)O)NC(=O)[C@H](CO)NC(=O)[C@@H](NC(=O)[C@H](Cc2ccccc2)NC(=O)[C@@H](NC(=O)CNC(=O)[C@H](CCC(N)=O)NC(=O)C(C)(C)NC(=O)[C@@H](N)Cc2c[nH]cn2)[C@@H](C)O)[C@@H](C)O)C(=O)N[C@@H](CCCNC(=N)N)C(=O)NC(C)(C)C(N)=O)[C@@H](O)[C@H](O)[C@H]1O [EU-A529]

EC50 [3]: 5 pM | EC50 [4]: 35 pM
SMILES: CCCCCCCCCCCCCCO[C@@H]1O[C@H](CO[C@H]2O[C@H](C(=O)NCCCC[C@H](NC(=O)[C@@H](NC(=O)[C@H](Cc3ccccc3)NC(=O)[C@H](CCC(=O)O)NC(=O)[C@@H]3CCCCNC(=O)CC[C@H](NC(=O)[C@H](CC(=O)O)NC(=O)[C@H](CC(C)C)NC(=O)[C@H](Cc4ccc(O)cc4)NC(=O)[C@H](CCCCN)NC(=O)[C@H](CO)NC(=O)[C@H](Cc4ccc(O)cc4)NC(=O)[C@H](CC(=O)O)NC(=O)[C@H](CO)NC(=O)[C@@H](NC(=O)[C@H](Cc4ccccc4)NC(=O)[C@@H](NC(=O)CNC(=O)[C@H](CCC(N)=O)NC(=O)C(C)(C)NC(=O)[C@@H](N)Cc4c[nH]cn4)[C@@H](C)O)[C@@H](C)O)C(=O)N[C@@H](CCC(N)=O)C(=O)N[C@@H](C)C(=O)N[C@@H](C)C(=O)N3)[C@@H](C)CC)C(=O)N[C@@H](Cc3c[nH]c4ccccc34)C(=O)N[C@@H](CC(C)C)C(=O)N[C@@H](CC(C)C)C(=O)N[C@@H](CCC(N)=O)C(=O)N[C@H](C(N)=O)[C@@H](C)O)[C@H](O)[C@H](O)[C@H]2O)[C@@H](O)[C@H](O)[C@H]1O [EU-A1024]
fat mass (NMR) [2, 5]: reduced fat mass | lean mass (NMR) [2, 5]: little effect on lean mass | basal insulin secretion [2, 6]: reduced basal insulin secretion | glucose excursion in the oral glucose tolerance test (OGTT) [2, 6]: reduced glucose excursion | glucose-dependent insulin secretion [2, 6]: increased glucose-dependent insulin secretion | weight gain ([2]; sc on days 1 (0 and 7 hr), 3, 6, 9, 12, 15, 18, 21 and 24 (FIG. 10)): reduced weight gain
